The text below walks through data of patent US20240182873A1, “PRENYLTRANSFERASE AND A […], TISSUE, AND ORGANISM COMPRISING SAME” (YEDA RESEARCH AND DEVELOPMENT CO. LTD., priority 2021, published 2024).

The subject of test [1] is Helichrysum umbraculigerum PT1 (HuPT1; SEQ ID NO: 1), N-terminal plastid targeting sequence removed. The test can be described thus: Steady state kinetic analysis of HuPT1 with olivetolic acid and GPP (yeast microsomes, CBGA production). Particulars: varying olivetolic acid (0.5 μM-1.5 mM), constant GPP (1 mM), pH 8.5, 30° C., 15 min, n=3. Format: biochemical. On the procedure:
(§1) FIG. 4 includes graphs showing steady state kinetic analysis of Helichrysum umbraculigerum PT1 (HuPT1; SEQ ID NO: 1), HuPT3 (SEQ ID NO: 3) and HuPTx (SEQ ID NO: 7) with olivetolic acid and GPP. The Michaelis-Menten Km value of each enzyme was calculated using varying olivetolic acid (0.5 μM-1.5 mM) and constant GPP (1 mM) concentrations (n=3 technically independent samples; measurements were plotted individually).
(§2) HuPT1 (SEQ ID NO: 1), HuPT2 (SEQ ID NO: 2), HuPT3 (SEQ ID NO: 3), HuPTx (SEQ ID NO: 7) genes from H. umbraculigerum and GOT4 gene from Cannabis sativa were separately cloned into pESC-HIS vector. Microsomal preparations from yeast cells transformed with pESC-HIS vectors were performed as described by Jozwiak et al. (2020). PT enzymatic assay was carried out as described previously for CsGOT4 (Luo et al., 2019).
(§3) Microsomes (2 μl) were dissolved in reaction buffer (50 mM Tris-HCl, 10 mM MgCl2, pH 8.5) and substrate was added [0.5 μM-1.5 mM μM olivetolic acid (Cayman Chemicals), 1 mM geranyl pyrophosphate (GPP, Sigma Aldrich)] to a total volume of 50 μl. Samples were incubated for 15 min at 30° C. Samples were extracted with 100 μl […] followed by vortexing and centrifugation. The organic layer was filtered and analyzed via UPLC-qTOF and Triple Quad (TQ) instruments. […]

Test [2] has as its system Helichrysum umbraculigerum HuPTx (SEQ ID NO: 7), N-terminal plastid targeting sequence removed. As to the kind of experiment: Steady state kinetic analysis of HuPTx with olivetolic acid and GPP (yeast microsomes, CBGA production). Format: biochemical. Particulars: varying olivetolic acid (0.5 μM-1.5 mM), constant GPP (1 mM), pH 8.5, 30° C., 15 min, n=3. On the procedure:
as §1, §2, §3

The test system of test [3] is Cannabis sativa geranylpyrophosphate:olivetolate geranyltransferase 4 (CsGOT4). Particulars: Luo et al., 2019; cited from earlier work.
Test [4] concerns Helichrysum umbraculigerum HuPT3 (SEQ ID NO: 3), N-terminal plastid targeting sequence removed. The test can be described thus: Steady state kinetic analysis of HuPT3 with olivetolic acid and GPP (yeast microsomes, CBGA production). The test is classed as biochemical. Particulars: varying olivetolic acid (0.5 μM-1.5 mM), constant GPP (1 mM), pH 8.5, 30° C., 15 min, n=3. As to the method:
as §1, §2, §3

The nature of test [5]: In vitro enzymatic assay with PTs: CBGA production by yeast microsomal fractions. Format: biochemical. Particulars: purified yeast microsomal fraction expressing the PT; OA and GPP as substrates; LC-MS.
Excerpt: FIG. 2 includes a graph showing in vitro production of cannabigerolic acid (CBGA). Purified microsomal fraction from yeast cells expressing prenyltransferases (PTs) were used in enzyme assay containing olivetolic acid (OA) and geranylpyrophosphate (GPP). Cannabis sativa geranylpyrophosphate:olivetolate geranyltransferase 4 (CsGOT4) enzyme assay was used as positive control in experiment. Extracted ion chromatograms (EICs) are shown. LC-MS was used for assay products analysis. Standard—STD; Negative control—Empty vector.
as §2
The inventors profiled six tissues (young leaf, old leaf, florets and receptacles of flowers, stems, and roots) from H. umbraculigerum, using UPLC-qTOF, and identified CBGA in all the tissues, excluding roots (FIG. 1). CBGA is the known central precursor to Δ^9-tetrahydrocannabinolic acid (THCA), cannabidiolic acid (CBDA) and several other cannabinoids. It is produced from olivetolic acid (OA) and geranyl pyrophosphate (GPP) by an enzymatic reaction catalyzed by geranylpyrophosphate:olivetolate geranyltransferase 4 (GOT4). To identify genes in H. umbraculigerum associated with GOT4 like activity, the inventors searched for candidate prenyltransferase genes in Helichrysum transcriptome. Four prenyltransferase like genes, namely, HuPT1 (SEQ ID NO: 1), HuPT2 (SEQ ID NO: 2), HuPT3 (SEQ ID NO: 3) and HuPTx (SEQ ID NO: 7) were selected for further characterization based on their differential expression profile in leaves compared to other tissues. All these PTs shared less than 40% homology with CsGOT4 that is known to partake in cannabinoid biosynthesis. […]

`CCCCCc1cc(O)cc(O)c1C(=O)O` [olivetolic acid]: the Km in test [1] is 19 ± 6.3 µM; in test [2], 2 ± 0.8 µM; in test [3] it was 6.7 ± 0.3 µM; in test [4] it was 110 ± 44.3 µM.

B1: HuPT1: Prenyltransferase from Helichrysum umbraculigerum, gene SEQ ID NO: 1, expressed in yeast microsomes (protein)
chain: MELSLSSSSSSSLPQLHTHPSSSSSSSHYIKKSPFFINKFNNHTKCKFHNSSALRTNFFYTTITKTSSSRFVLNKNPNQFSVKACSQVGSAGSDPALNKVADFKDAFWRFLRPHTIRGTALGSVSLVTRALLENPNLIRWSLLLKAFSGLVALICGNGYIVGINQIYDIGIDKVNKPYLPIAAGDLSVQSAWFLVLAFAMVGVIIVGMNFGPFITSLYSLGLFLGTIYSVPPLRMKRFPVVAFLIIATVRGFLLNFGVYYAVRAALGLTFQWSSAVAFITTFVTLFALVIAITKDLPDVEGDRKFQISTFATKLGVRNIALLGSGLLLINYIGSIVAALYMPQAFRSSLMIPLHTILASCLIYQAWILERANYTQEAIAGYYRFVWNLFYSEYIIFPFI
Consider B1, for which, in test [5], the “production of CBGA (PT activity)” value is reported as “clear production of CBGA”.

B2: HuPT3: Prenyltransferase from Helichrysum umbraculigerum, gene SEQ ID NO: 3, expressed in yeast microsomes (protein)
chain: MKSLIIGSFSNKVSCYSPSLPDSSSSLIPTGCYHVSLRTFQRNRAIQAQSSLVRCNIGKFNETLLLSRKRSTKHVACAVSEQPIEPDATNPQSSLPNALDAFYRFSRPHTVIGTALSIVSVSLLAVQKLSDFSPLFFIGVFEAIVAAFFMNIYIVGLNQLSDIEIDKVNKPYLPLASGEYSVQTGIIIVSSFAVMSFWLGWIVGSWPLFWALFISFLLGTAYSINIPMLRWKRFALVAAMCILAVRAIIVQVAFYLHIQTFVYGRLAVFPKPVIFATGFMSFFSVVIALFKDIPDIVGDKIFGIQSFTVRMGQKRVFWICILLLEIAYGVAILVGASSPFLWSRYITVLGHAILGLILWGRAKSTDLESKSAITSFYMFIWQLFYAEYLLIPLVR
Consider B2, for which, in test [5], the “production of CBGA (PT activity)” value is “clear production of CBGA”.

B3: HuPTx: Prenyltransferase from Helichrysum umbraculigerum, gene SEQ ID NO: 7, expressed in yeast microsomes (protein)
chain: MASLAIGSLGSPSSRQCSSPVASSSSFAIGSQIASKFLRISKFDKTKNSPLTLQQKHINKSIDQSFFEPLPLHKINKDKFKLYATSTNNPQFDATHDLKTPEVSIINFVDALYRLIRPYTAVVTIVSVVAMSLLTVNSLSDFSPLFFIKVVQALIGGIFMQMYVSGFNQICDIELDKVNKQSLPLAAGELSMKTAIVIASLSAIMSLSIGWFVGSPPLLWCLVWWFIVGTAYSANVLPYLRWKRFPFTAAFCAMTSRALVLPIGYYLHMQNSIPGVSALLSRPILFAVAMLSAFSLSAMFFKDIPDIKGDRMHGIKSLAIKLGEKRVYWISISIIEIAYIAAAFIGATSPISWSKYVTIIGHLGMGLLLWVRARSVDPTNTVAVQSMYMFLIKLVYAEYGLISLVR
For B3, the “production of CBGA (PT activity)” value in test [5] is “clear production of CBGA”.

One may read the Km as the concentration of substrate that gives half-maximal velocity.
